{"source": "patent US20210308061A1", "about": "“PHARMACEUTICAL COMPOSITIONS WITH A CDC7 INHIBITOR” (TAKED PHARMACEUTICAL COMPANY LIMITED, priority 2018, published 2021)", "experiment": "Powder flowability (flow factor FFc), FT4 powder rheometer", "format": "physicochemical", "settings": "Compound 1 alone", "description": "For the simulation of the DG process, compression pressure was adjusted to produce ribbon of different porosity. The flowability and compressibility of either preblend or milled ribbon was measured to evaluate the manufacturability of each formulation on the DC and the DG processes. The peak force value of compression and the vertical projection area of tooling were used to calculate the maximum compression pressure (CP). Powder flowability (i.e., flow factor (FFc)) was measured using the FT4 powder rheometer with the characterization method of 3 kPa pre-consolidation and 10 ml filling volume (Freeman Technology, Tewkesbury UK). This method was applied because it was representative of powder flow scenarios in most pharmaceutical manufacturing processes. The true density of powder was measured using the AccuPyc 1340 pycnometer (Micrometrics, Norcross Ga. USA) to calculate porosity of the ribbon."}
{"molecule": "Cc1[nH]ncc1-c1cc2nc([C@@H]3CC4CCN3CC4)[nH]c(=O)c2s1", "note": "[Compound 1, 2-[(2S)-1-azabicyclo[2.2.2]oct-2-yl]-6-(3-methyl-1H-pyrazol-4-yl)thieno[3,2-d]pyrimidin-4(3H)-one]", "values": [{"measurement": "flow factor", "result": "about 2.3"}]}
